# Test results: patent US12285455B2, “Controlled-release and stratified cyclodextrin inclusion complex vehicles” (CZAP RESEARCH AND DEVELOPMENT, LLC., priority 2016, dated 2025)
# System: myelofibrosis
# Test: treatment of myelofibrosis, case history
# Type: in vivo, human
# Conditions: following initiation of treatment; approximately every 10 days before treatment
# Description: This example illustrates the treatment of symptoms associated with myelofibrosis. A patient suffering from myelofibrosis was treated with a quercetin CD formulation. The formulation was prepared from a powder of quercetin (Glanbia Nutritionals) formed as an inclusion complex with gamma cyclodextrin, dried and mixed with amylase powder. At the initiation of quercetin CD treatment, the patient was in need of blood transfusions approximately every 10 days. Following initiation of the quercetin CD treatment, the patient was able to go 20 days between transfusions.
smiles,measurement,value
O=c1c(O)c(-c2ccc(O)c(O)c2)oc2cc(O)cc(O)c12 [quercetin],interval between blood transfusions,did not get this result
